Data: US8609660B2, “4,7-dihydro-pyrazolo[1,5-a]pyrazin-6-ylamine derivatives useful as inhibitors of beta-secretase (BACE)” (Janssen Pharmaceutica NV, priority 2010, dated 2013)

Key:
[1] = system: Aβtotal produced and secreted into the medium of human neuroblastoma SKNBE2 cells; assay: Cellular αlisa assay in SKNBE2 cells, Aβtotal; type: cell-based; details: SKNBE2 cells expressing hAPP695, 18 hours incubation; for IC50: Homo sapiens, SKNBE2, 18 h, read-out: Cellular αlisa assay in SKNBE2 cells Aβtotal pIC50 (converted)
Method: (§1) Cellular αlisa Assay in SKNBE2 Cells In two αlisa assays the levels of Aβtotal and Aβ42 produced and secreted into the medium of human neuroblastoma SKNBE2 cells are quantified. The assay is based on the human neuroblastoma SKNBE2 expressing the wild type Amyloid Precursor Protein (hAPP695). […] Aβtotal and Aβ42 are measured by sandwich α[…] sandwich assay using biotinylated antibody AbN/25 attached to streptavidin coated beads and antibody Ab4G8 or cAb42/26 conjugated acceptor beads for the detection of Aβtotal and Aβ42 respectively. In the presence of Aβtotal or Aβ42, the beads come into close proximity. The excitation of the Donor beads provokes the release of singlet oxygen molecules that triggers a cascade of energy transfer in the Acceptor beads, resulting in light emission. Light emission is measured after 1 hour incubation (excitation at […] and emission at 615 nm). A best-fit curve is fitted by a minimum sum of squares method to the plot of % Controlmin versus compound concentration. […] [formula]

[2] = target: T1, recombinant BACE1 protein (Homo sapiens, UniProt P56817); assay: Biochemical FRET based assay; details: recombinant BACE1 1 μg/ml, 120 min, room temperature, pH 5.0; for IC50: read-out: Biochemical FRET based assay pIC50 (converted)
T1 construct: recombinant BACE1 protein in a final concentration of 1 μg/ml
T1 sequence (P56817 46-501): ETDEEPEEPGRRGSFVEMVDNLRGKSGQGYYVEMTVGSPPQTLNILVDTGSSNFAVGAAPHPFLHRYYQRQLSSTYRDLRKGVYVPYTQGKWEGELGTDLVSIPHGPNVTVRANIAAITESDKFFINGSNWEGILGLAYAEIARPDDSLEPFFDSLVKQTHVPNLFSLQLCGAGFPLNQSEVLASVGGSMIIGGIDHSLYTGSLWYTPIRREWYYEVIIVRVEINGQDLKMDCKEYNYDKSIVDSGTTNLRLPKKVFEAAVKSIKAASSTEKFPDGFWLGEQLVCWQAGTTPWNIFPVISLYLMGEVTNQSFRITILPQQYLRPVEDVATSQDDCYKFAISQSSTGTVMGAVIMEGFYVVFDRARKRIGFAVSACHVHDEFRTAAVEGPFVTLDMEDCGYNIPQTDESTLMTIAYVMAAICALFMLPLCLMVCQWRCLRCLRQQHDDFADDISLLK
Excerpt: Biochemical FRET Based Assay This assay is a Fluorescence Resonance Energy Transfer Assay (FRET) based assay. The substrate for this assay is an APP derived 13 amino acids peptide that contains the 'Swedish' […] mutation of the amyloid precursor protein (APP) β-secretase cleavage site. […] Upon cleavage by BACE1, the fluorophore Mca is separated from the quenching group Dnp, restoring the full fluorescence yield of the donor. The increase in fluorescence is linearly related to the rate of proteolysis (Koike H et al. J Biochem. 1999, 126, 235-42). Briefly in a 384-well format recombinant BACE1 protein in a final concentration of 1 μg/ml is incubated for 120 minutes at room temperature with 10 μm substrate in incubation buffer (40 mM Citrate buffer pH 5.0, 0.04% PEG, 4% DMSO) in the absence or presence of compound. Next the amount of proteolysis is directly measured by fluorescence measurement at T=0 and T=120 (excitation at 320 nm and emission at 405 nm). […] [formula]

[3] = system: Aβ42 produced and secreted into the medium of human neuroblastoma SKNBE2 cells; assay: Cellular αlisa assay in SKNBE2 cells, Aβ42; type: cell-based; details: SKNBE2 cells expressing hAPP695, 18 hours incubation; for IC50: Homo sapiens, SKNBE2, 18 h, read-out: Cellular αlisa assay in SKNBE2 cells Aβ42 pIC50 (converted)
Method: as §1

Row | SMILES | IC50 [1] [nM] | IC50 [2] [µM] | IC50 [3] [nM] | Cellular αlisa assay in SKNBE2 cells Aβtotal pIC50 [1] | Biochemical FRET based assay pIC50 [2] | Cellular αlisa assay in SKNBE2 cells Aβ42 pIC50 [3]
1 | CC1(c2cccc(-c3cncnc3)c2)N=C(N)Cn2nccc21 (racemic) [Compound 1, rac-4-methyl-4-(3-pyrimidin-5-ylphenyl)-4,7-dihydropyrazolo[1,5-a]pyrazin-6-amine] | 355 | 3.31 | 457 |  |  | 
2 | CC1(c2cccc(NC(=O)c3ccc(Cl)cn3)c2)N=C(N)Cn2nccc21 (racemic) [Compound 3, rac-N-[3-(6-amino-4-methyl-4,7-dihydropyrazolo[1,5-a]pyrazin-4-yl)-phenyl]-5-chloropyridine-2-carboxamide] | 11.7 |  | 10.7 |  |  | 
3 | COc1cncc(-c2cc(C3(C)N=C(N)Cn4nccc43)c(F)cc2F)c1 (racemic) [Compound 5] |  |  |  | 6.41 | 5.49 | 6.4
4 | COc1cccc(-c2cc(C3(C)N=C(N)Cn4nccc43)c(F)cc2F)c1 (racemic) [Compound 6] |  |  |  | 6.13 | 5.53 | 6.06
5 | CC1(c2cc(-c3ccccc3)c(F)cc2F)N=C(N)Cn2nccc21 (racemic) [Compound 12] |  |  |  | 5.67 | 4.88 | 5.58
6 | CC1(c2cc(NC(=O)c3ccc(Cl)cn3)ccc2F)N=C(N)Cn2nccc21 (racemic) [Compound 13] |  |  |  | 7.73 | 6.84 | 7.72
7 | CC1(c2cc(-c3cc(Cl)cc(Cl)c3)ccc2F)N=C(N)Cn2nccc21 (racemic) [Compound 15] |  |  |  | 5.52 | 5.68 | 5.48
8 | CC1(c2cc(-c3cncnc3)ccc2F)N=C(N)Cn2nccc21 (racemic) [Compound 16] |  |  |  | 5.48 | 4.98 | 5.53
9 | CC1(c2cc(-c3cccc(C#N)c3)c(F)cc2F)N=C(N)Cn2nccc21 (racemic) [Compound 18] |  |  |  | 5.67 | 4.75 | 5.76
10 | COc1cnc(C(=O)Nc2ccc(F)c(C3(C)N=C(N)Cn4nc(C(F)(F)F)cc43)c2)cn1 (racemic) [Compound 30] |  |  |  | 6.78 | 6.68 | 6.8
11 | COc1cncc(-c2cccc(C3(C)N=C(N)Cn4nc(C(F)(F)F)cc43)c2)c1 (single isomer, unassigned) [Compound 22, (R*)-4-[3-(5-methoxypyridin-3-yl)-phenyl]-4-methyl-2-(trifluoromethyl)-4,7-dihydropyrazolo[1,5-a]pyrazin-6-amine] |  | 0.603 |  | 6.18 |  | 6.13
12 | COc1cncc(-c2cccc(C3(C)N=C(N)Cn4nc(C(F)(F)F)cc43)c2)c1 (single isomer, unassigned) [Compound 23, (S*)-4-[3-(5-methoxypyridin-3-yl)-phenyl]-4-methyl-2-(trifluoromethyl)-4,7-dihydropyrazolo[1,5-a]pyrazin-6-amine] |  | > 30.2 |  | <5 |  | <5
13 | CC1(c2cc(-c3cncc(Cl)c3)ccc2F)N=C(N)Cn2nc(C(F)(F)F)cc21 (single isomer, unassigned) [Compound 25, (R*)-4-[5-(5-chloropyridin-3-yl)-2-fluorophenyl]-4-methyl-2-(trifluoromethyl)-4,7-dihydropyrazolo[1,5-a]pyrazin-6-amine] |  | 3.63 |  | 5.64 |  | 5.5
14 | CC1(c2cc(-c3cncc(Cl)c3)ccc2F)N=C(N)Cn2nc(C(F)(F)F)cc21 (single isomer, unassigned) [Compound 26, (S*)-4-[5-(5-chloropyridin-3-yl)-2-fluorophenyl]-4-methyl-2-(trifluoromethyl)-4,7-dihydropyrazolo[1,5-a]pyrazin-6-amine] |  | > 30.2 |  | <5 |  | <5
15 | CC1(c2cc(NC(=O)c3ncc(Cl)cc3Cl)ccc2F)N=C(N)Cn2nc(C(F)(F)F)cc21 (single isomer, unassigned) [Compound 28, (R*)—N-{3-[6-amino-4-methyl-2-(trifluoromethyl)-4,7-dihydropyrazolo[1,5-a]pyrazin-4-yl]-4-fluorophenyl}-3,5-dichloropyridine-2-carboxamide] |  | 0.0912 |  | 7.1 |  | 6.99
16 | CC1(c2cc(NC(=O)c3ncc(Cl)cc3Cl)ccc2F)N=C(N)Cn2nc(C(F)(F)F)cc21 (single isomer, unassigned) [Compound 29, (S*)—N-{3-[6-amino-4-methyl-2-(trifluoromethyl)-4,7-dihydropyrazolo[1,5-a]pyrazin-4-yl]-4-fluorophenyl}-3,5-dichloropyridine-2-carboxamide] |  | 15.5 |  | <5 |  | <5
17 | COc1cnc(C(=O)Nc2ccc(F)c(C3(C)N=C(N)Cn4nc(C(F)(F)F)cc43)c2)cn1 (single isomer, unassigned) [Compound 31] |  |  |  | 6.99 | 6.73 | 6.92
18 | COc1cnc(C(=O)Nc2ccc(F)c(C3(C)N=C(N)Cn4nc(C(F)(F)F)cc43)c2)cn1 (single isomer, unassigned) [Compound 32] |  |  |  | 6.54 | <4.52 | 6.56
19 | CC1(c2cccc(-c3cncnc3)c2)N=C(N)Cn2nccc21 (stereo not shown) [Compound 8] |  |  |  | 6.54 | 5.65 | 6.61
20 | COc1cncc(-c2cccc(C3(C)N=C(N)Cn4nccc43)c2)c1 (stereo not shown) [Compound 9] |  |  |  | 6.94 | 6.05 | 6.93
21 | CC1(c2cccc(NC(=O)c3ccc(Cl)cn3)c2)N=C(N)Cn2nccc21 (stereo not shown) [Compound 17] |  |  |  | 8.08 |  | 8.09
